According to article PMC8951032, “Study of Biological Activities and ADMET-Related Properties of Novel Chlorinated N-arylcinnamamides” (International Journal of Molecular Sciences, 2022):
≈ marks a conversion by molar mass, not a printed value. Like-named read-outs stand apart in the source and are kept apart here.

How the values were obtained:
[1] = system: vancomycin-resistant E. faecalis (VRE) 368; experiment: In vitro antienterococcal activity, microtitration broth MIC; assay type: cell-based, Enterococcus faecalis
[2] = Lipophilicity determination by RP-HPLC (log k, log D); assay type: physicochemical; settings: for log k: MeOH 72%/H2O 28%; for log D6.5: MeOH 72%/acetate buffered saline pH 6.5; for log D7.4: MeOH 72%/acetate buffered saline pH 7.4
Protocol: In addition to the mentioned ADME profile, it is responsible for interactions with biological targets. Lipophilicity is recognized as one of the most important parameters influencing ADME and bioactivity and is also part, e.g., of Lipinski’s Rule of Five (Ro5). This thermodynamic parameter describing the molecule’s affinity for an aqueous or relatively lipophilic environment can be characterized by the logarithm of the partition coefficient (log P). In this study, lipophilicity was measured by reversed-phase high-performance liquid chromatography (RP-HPLC) under isocratic conditions with methanol as the organic modifier in the aqueous mobile phase and the logarithm of the capacity factor k was calculated, which is used as the lipophilicity index converted to the log P scale. In addition to the log k values, the logarithm of the distribution coefficient DpH at pH 6.5 and 7.4 was determined to clarify the behavior of the compounds under physiological conditions and possible ionization. Instead of water, a buffer of suitable pH was used as part of the mobile phase. In addition to the above-mentioned experimental methods, commercially available ChemBioDraw Ultra 13.0 and ACD/Percepta ver. 2012 programs were used to calculate the lipophilicity values of all prepared compounds.
A HPLC separation module Waters Alliance 2695 XE equipped with a Waters Dual Absorbance Detector 2486 (Waters Corp., Milford, MA, USA) was used. A chromatographic column Symmetry® C18 5 μm, 4.6 × 250 mm, Part No. W21751W016 (Waters Corp., Milford, MA, USA) was used. The HPLC separation process was monitored by Empower® 3 Chromatography Manager Software (Waters Corp.). Isocratic elution by a mixture of MeOH p.a. (72%) and H2O-HPLC Mili-Q grade (28%) as a mobile phase was used for the determination of capacity factor k. Isocratic elution by a mixture of MeOH p.a. (72%) and acetate buffered saline (pH 7.4 and pH 6.5) (28%) as a mobile phase was used for the determination of distribution coefficient expressed as D7.4 and D6.5. The total flow of the column was 1.0 mL/min, injection 20 μL, column temperature 40 °C, and sample temperature 10 °C. The detection wavelength of 210 nm was chosen. A KI methanolic solution was used for the determination of the dead times (tD). Retention times (tR) were measured in minutes. The capacity factors k were calculated according to the formula k = (tR − tD)/tD, where tR is the retention time of the solute, and tD is the dead time obtained using an unretained analyte. The distribution coefficients DpH were calculated according to the formula DpH = (tR − tD)/tD. Each experiment was repeated three times.

[3] = system: Staphylococcus aureus ATCC 29213; experiment: In vitro antistaphylococcal activity, microtitration broth MIC; assay type: cell-based; settings: for MIC: Staphylococcus aureus
[4] = system: vancomycin-resistant E. faecalis (VRE) 342B; experiment: In vitro antienterococcal activity, microtitration broth MIC; assay type: cell-based, Enterococcus faecalis; settings: 24 h
[5] = system: human synovial cell line SW982; experiment: In vitro cell viability, CCK-8; assay type: cell-based; settings: 10% fetal bovine serum
Protocol: (§1) The effect of the compounds on viability of eukaryotic cells was evaluated on human leukemia cell line THP-1, human synovial cell line SW982, and isolated primary porcine monocytes-delivered macrophages (MDM). The general cytotoxic effect was studied on THP-1 cells in the serum-free medium (only THP-1 as the only cells used in this study are able to survive in serum-free medium). Most of the compounds had no cytotoxic effect on THP-1 cells. […] This could be caused by the direct interaction of such compounds with serum proteins or by the effect of mitogens, cytokines, and hormones present in the serum. Obviously, the full medium is closer to physiological conditions in living organisms, so it can be assumed that these compounds could be non-toxic there.
(§2) Human monocytic leukemia cell line THP-1 and human synovial cell line SW982 were purchased from the European Collection of Cell Cultures (ECACC, Salisbury, UK) and were used for determination of the influence of test compounds on cell viability, as described previously. These cell lines represent typical suspension and adherent cells, respectively. They were cultivated with test substances in the presence or absence of fetal bovine serum (FBS) in the cultivation medium, and the relative cell viability (the ratio between cells treated with compounds and cells treated only with DMSO) was determined by CCK-8 kit (Sigma) after 24 h.

[6] = system: human monocytic leukemia cell line THP-1; experiment: In vitro cell viability, CCK-8; assay type: cell-based; settings: Homo sapiens, THP-1
Protocol: as §1, §2

[7] = system: methicillin-resistant S. aureus SA 3202; experiment: In vitro antistaphylococcal activity, microtitration broth MIC; assay type: cell-based; settings: Staphylococcus aureus
[8] = system: S. aureus, MRSA, E. faecalis, VRE, M. smegmatis, M. marinum; experiment: In vitro antimicrobial screening, all tested strains; assay type: cell-based; settings: antibacterial/antimycobacterial screening
[9] = system: Mycobacterium smegmatis ATCC 700084; experiment: In vitro antimycobacterial activity, broth dilution MIC; assay type: cell-based; settings: Mycolicibacterium smegmatis
[10] = system: methicillin-resistant S. aureus (MRSA) 63718; experiment: In vitro antistaphylococcal activity, microtitration broth MIC; assay type: cell-based; settings: Staphylococcus aureus
[11] = system: Mycobacterium marinum CAMP 5644; experiment: In vitro antimycobacterial activity, broth dilution MIC; assay type: cell-based; settings: CAMP5644, 504 h
[12] = system: vancomycin-resistant E. faecalis (VRE) 725B; experiment: In vitro antienterococcal activity, microtitration broth MIC; assay type: cell-based, Enterococcus faecalis; settings: 24 h
[13] = 24 h, VRE 368, read-out: log(1/MIC [M]) VRE2 (converted)
[14] = VRE 368, 24 h, read-out: MIC VRE2
[15] = ATCC29213, 24 h, S. aureus ATCC 29213, read-out: log(1/MIC [M]) SA (converted)
[16] = ATCC29213, S. aureus ATCC 29213, 24 h, read-out: MIC SA
[17] = read-out: log(1/MIC [M]) VRE1 (converted)
[18] = 24 h, read-out: IC50 SW982 10% FSB
[19] = read-out: log(1/IC50 [M]) SW982 10% FSB (converted)
[20] = 10% fetal bovine serum, 24 h, read-out: IC50 THP-1 10% FSB
[21] = 10% fetal bovine serum, read-out: log(1/IC50 [M]) THP-1 10% FSB (converted)
[22] = serum-free medium, 24 h, read-out: IC50 THP-1 SFM
[23] = serum-free medium, read-out: log(1/IC50 [M]) THP-1 SFM (converted)
[24] = 24 h, MRSA SA 3202, read-out: log(1/MIC [M]) MRSA3 (converted)
[25] = MRSA SA 3202, 24 h, read-out: MIC MRSA3
[26] = ATCC700084, 72 h, M. smegmatis ATCC 700084, three days, read-out: MIC MS
[27] = ATCC700084, M. smegmatis ATCC 700084, read-out: log(1/MIC [M]) MS (converted)
[28] = 24 h, MRSA 63718, read-out: log(1/MIC [M]) MRSA1 (converted)
[29] = MRSA 63718, 24 h, read-out: MIC MRSA1
[30] = M. marinum CAMP 5644, 21 days, read-out: MIC MM
[31] = M. marinum CAMP 5644, read-out: log(1/MIC [M]) MM (converted)
[32] = read-out: log(1/MIC [M]) VRE3 (converted)

| Compound | MIC [1, 13] [M] | MIC [1, 14] [M] | log k [2] | log D6.5 [2] | log D7.4 [2] | MIC [3, 15] [M] | MIC [3, 16] [M] | MIC ([4]; read-out: MIC VRE1) [M] | MIC [4, 17] [M] | IC50 [5, 18] [M] | IC50 [5, 19] [M] | IC50 [6, 20] [M] | IC50 [6, 21] [M] | IC50 [6, 22] [M] | IC50 [6, 23] [M] | MIC [7, 24] [M] | MIC [7, 25] [M] | antimicrobial activity (in words) [8] | MIC [9, 26] [M] | MIC [9, 27] [M] | other results |
| --- | --- | --- | --- | --- | --- | --- | --- | --- | --- | --- | --- | --- | --- | --- | --- | --- | --- | --- | --- | --- | --- |
| O=C(/C=C/c1ccc(Cl)cc1)Nc1cccc(C(F)(F)F)c1 [1i, (2E)-3-(4-Chlorophenyl)-N-[3-(trifluoromethyl)phenyl]prop-2-enamide] | > 0.000794 | > 0.000786 | 0.8612 | 0.8071 | 0.8105 | 6.17e-06 (≈ 2.01 µg/mL) | 6.14e-06 (≈ 2 µg/mL) | > 0.000786 | > 0.000794 | > 1e-05 | > 1e-05 | > 1e-05 | > 1e-05 | 2.9e-06 ± 1.2e-06 | 2.88e-06 | 6.17e-06 (≈ 2.01 µg/mL) | 6.14e-06 (≈ 2 µg/mL) | showed activity | > 0.000786 | > 0.000794 | MIC [10, 28]: 6.17e-06 M (≈ 2.01 µg/mL); MIC [10, 29]: 6.14e-06 M (≈ 2 µg/mL); MIC [11, 30]: > 0.000786 M; MIC [11, 31]: > 0.000794 M; MIC ([12]; read-out: MIC VRE3): > 0.000786 M; MIC [12, 32]: > 0.000794 M |
| O=C(/C=C/c1ccc(Cl)cc1)Nc1cc(Cl)cc(Cl)c1 [1p, (2E)-3-(4-Chlorophenyl)-N-(3,5-dichlorophenyl)prop-2-enamide] | > 0.000776 | > 0.000783 | 1.1899 | 1.1368 | 1.1366 | 3.8e-07 (≈ 0.124 µg/mL) | 3.83e-07 (≈ 0.125 µg/mL) | > 0.000783 | > 0.000776 | > 1e-05 | > 1e-05 | > 1e-05 | > 1e-05 | 2.5e-06 ± 1.1e-06 | 2.51e-06 | 7.59e-07 (≈ 0.248 µg/mL) | 7.65e-07 (≈ 0.25 µg/mL) | showed activity | 2.45e-05 (≈ 8 µg/mL) | 2.45e-05 (≈ 8.02 µg/mL) | activity against S. aureus and MRSA isolates (in words) [3]: submicromolar; MIC [10, 28]: 3.8e-07 M (≈ 0.124 µg/mL); MIC [10, 29]: 3.83e-07 M (≈ 0.125 µg/mL); MIC [11, 30]: > 0.000783 M; MIC [11, 31]: > 0.000776 M; MIC ([12]; read-out: MIC VRE3): > 0.000783 M; MIC [12, 32]: > 0.000776 M |
| O=C(/C=C/c1ccc(Cl)cc1)Nc1cc(C(F)(F)F)cc(C(F)(F)F)c1 [1q, (2E)-N-[3,5-bis(Trifluoromethyl)phenyl]-3-(4-chlorophenyl)prop-2-enamide] | 0.000324 (≈ 127 µg/mL) | 0.000325 (≈ 128 µg/mL) | 1.3064 | 1.2925 | 1.2980 | 3.16e-07 (≈ 0.125 µg/mL) | 3.18e-07 (≈ 0.125 µg/mL) | 0.00065 (≈ 256 µg/mL) | 0.000646 (≈ 254 µg/mL) | > 1e-05 | > 1e-05 | > 1e-05 | > 1e-05 | 1e-06 ± 1.1e-06 | 1e-06 | 6.31e-07 (≈ 0.248 µg/mL) | 6.35e-07 (≈ 0.25 µg/mL) | showed activity | 2.54e-06 (≈ 1 µg/mL) | 2.51e-06 (≈ 0.989 µg/mL) | activity against S. aureus and MRSA isolates (in words) [3]: submicromolar; MIC [10, 28]: 3.16e-07 M (≈ 0.125 µg/mL); MIC [10, 29]: 3.18e-07 M (≈ 0.125 µg/mL); MIC [11, 30]: > 0.00065 M; MIC [11, 31]: > 0.000646 M; MIC ([12]; read-out: MIC VRE3): 0.000325 M (≈ 128 µg/mL); MIC [12, 32]: 0.000324 M (≈ 127 µg/mL) |
